This assay relates to aromatase. Briefly: aromatase assay according to Graves and Salhanick using human placental microsomes in vitro. In kind it is biochemical. How it is done: The novel compounds of formula I and their pharmaceutically acceptable salts have, for example, valuable pharmacological properties as aromatase inhibitors. […] In this experimental method, the formation of water with tritium isotopes and 17β-oestradiol obtained from [1β,2β--^3 H]-testosterone is measured as a result of the action of a compound of the formula I on the formation of the hydrogenated form of the aromatase coenzyme, nicotinamide adenine dinucleotide phosphate (NADPH).

Structures are written as SMILES.

`Nc1ccc(C23CC2C(=O)N(CC2CCCCC2)C3=O)cc1` (centres unmarked) [Example 12, 1-(4-Aminophenyl)-3-cyclohexylmethyl-3-azabicyclo[3.1.0]hexane-2,4-dione]: for the setting “compared with measurements without addition of compound”, the “enzyme activity (NADPH content); content of water with radioactive tritium isotopes formed from [1β,2β-3H]-testosterone” value is reported as “substantially reduces the enzyme activity”. For the same compound, the “diminution of enzyme activity in comparison measurements with known aromatase inhibitors” value (comparison with aminoglutethimide) is recorded as “substantially greater than with the addition of other known aromatase inhibitors, e.g. aminoglutethimide”.
